Here are results for 13 compounds from patent US8148373B2, “Compounds” (AstraZeneca AB, priority 2008, dated 2012).

Where a name gives a salt, the structure may show the parent alone.

Test [1] has as its target T1, Adrenergic β2 (H292 cells) (Homo sapiens, UniProt P07550).
T1 construct: endogenous in cells; host or cells: H292 cells
Briefly: Assay for Adrenergic β2 Mediated cAMP Production (concentration response, AlphaScreen cAMP detection). Type of test: cell-based. The following applies: for EC50: cAMP production, 60 minutes at room temperature, 300 μM rolipram, read-out: β2 pEC50 (converted); for β2 Intrinsic activity: fraction relative to the maximum activity determined for formoterol. As to the method:
Assay for Adrenergic β2 Mediated Camp Production
H292 cells are grown in 225 cm2 flasks incubator at 37° C., 5% CO2 in RPMI medium containing 10% (v/v) FBS (foetal bovine serum) and 2 mM L-glutamine.
Adherent H292 cells are removed from tissue culture flasks by treatment with Accutase™ cell detachment solution for 15 minutes. Flasks are incubated for 15 minutes in a humidified incubator at 37° C., 5% CO2. Detached cells are re-suspended in RPMI media (containing 10% (v/v) FBS and 2 mM L-glutamine) at 0.1×10^6 cells per mL. 10000 cells in 100 μL are added to each well of a tissue-culture-treated 96-well plate and the cells incubated overnight in a humidified incubator at 37° C., 5% CO2. The culture media is removed and cells are washed twice with 100 μL assay buffer and replaced with 50 μL assay buffer (HBSS solution containing 10 mM HEPES pH7.4 and 5 mM glucose). Cells are rested at room temperature for 20 minutes after which time 25 μL of rolipram (1.2 mM made up in assay buffer containing 2.4% (v/v) dimethylsulphoxide) is added. Cells are incubated with rolipram for 10 minutes after which time test compounds are added and the cells are incubated for 60 minutes at room temperature. The final rolipram concentration in the assay is 300 μM and final vehicle concentration is 1% (v/v) dimethylsulphoxide. The reaction is stopped by removing supernatants, washing once with 100 μL assay buffer and replacing with 50 μL lysis buffer. The cell monolayer is frozen at −80° C. for 30 minutes (or overnight).
AlphaScreen™ cAMP Detection
The concentration of cAMP (cyclic adenosine monophosphate) in the cell lysate is determined using AlphaScreen™ methodology. The frozen cell plate is thawed for 20 minutes on a plate shaker then 10 μL of the cell lysate is transferred to a 96-well white plate. 40 μL of mixed AlphaScreen™ detection beads pre-incubated with biotinylated cAMP, is added to each well and the plate incubated at room temperature for 3 hours in the dark. The AlphaScreen™ signal is measured using an EnVision spectrophotometer (Perkin-Elmer Inc.) with the recommended manufacturer's settings. cAMP concentrations are determined by reference to a calibration curve determined in the same experiment using standard cAMP concentrations. Concentration response curves for agonists are constructed and data is fitted to a four parameter logistic equation to determine both the pEC50 and Intrinsic Activity. Intrinsic Activity is expressed as a fraction relative to the maximum activity determined for formoterol in each experiment.
For orientation: In Alpha technology, singlet oxygen from a donor bead excites a nearby acceptor bead.

Test [2] addresses T2, human muscarinic acetylcholine M3 receptor (M3-ACh) (Homo sapiens, UniProt P20309).
T2 construct: expressed in transfected cells; host or cells: CHO-K1 (Chinese Hamster Ovary) cell membranes
Briefly: Muscarinic 3 Receptor Binding Assay ([3H]NMS competition, SPA). The following applies: [3H]NMS 0.1 nM, CHO-K1 cell membranes, 16 hours at room temperature; read-out: M3 pIC50 (converted). As to the method: Muscarinic 3 Receptor Binding Assay
The affinity (pIC50) of compounds binding to the M3 receptor is determined by competition binding of [^3H]N-methyl scopolamine (NMS) to CHO-K1 (Chinese Hamster Ovary) cell membranes expressing the human muscarinic acetylcholine M3 receptor (M3-ACh) in a scintillation proximity assay (SPA) format.
SPA beads are precoated with membranes and then incubated at 2 mg of beads per well with serial dilutions of compounds of the invention, [^3H]NMS at 0.1 nM, quarter Kd (experimentally determined dissociation constant) and assay buffer (20 mM HEPES pH 7.4 containing 5 mM MgCl2). The assay is conducted in a final volume of 200 μL, in the presence of 1% (v/v) dimethyl sulphoxide (DMSO). Total binding of [^3H]NMS is determined in the absence of competing compound and non-specific binding of [^3H]NMS is determined in the presence of 1 μM atropine. The plates are incubated for 16 hours at room temperature and then read on Wallac Microbeta™ using a normalised ^3H protocol. The pIC50, defined as the negative logarithm of the molar concentration of compound required for 50% reduction in specific [^3H]-NMS binding, is determined.

T1 sequence (P07550 whole entry): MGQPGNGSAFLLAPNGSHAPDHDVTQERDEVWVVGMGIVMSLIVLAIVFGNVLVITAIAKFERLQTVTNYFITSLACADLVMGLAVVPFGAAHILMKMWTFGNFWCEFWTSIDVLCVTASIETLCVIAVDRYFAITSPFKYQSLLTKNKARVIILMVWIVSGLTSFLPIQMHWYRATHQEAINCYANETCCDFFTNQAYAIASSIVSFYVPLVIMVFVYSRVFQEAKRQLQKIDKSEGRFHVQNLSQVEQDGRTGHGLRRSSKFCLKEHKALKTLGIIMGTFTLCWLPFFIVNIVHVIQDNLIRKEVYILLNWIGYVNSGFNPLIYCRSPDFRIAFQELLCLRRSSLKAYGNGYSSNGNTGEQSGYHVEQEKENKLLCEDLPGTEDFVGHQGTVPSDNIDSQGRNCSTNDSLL
T2 sequence (P20309 whole entry): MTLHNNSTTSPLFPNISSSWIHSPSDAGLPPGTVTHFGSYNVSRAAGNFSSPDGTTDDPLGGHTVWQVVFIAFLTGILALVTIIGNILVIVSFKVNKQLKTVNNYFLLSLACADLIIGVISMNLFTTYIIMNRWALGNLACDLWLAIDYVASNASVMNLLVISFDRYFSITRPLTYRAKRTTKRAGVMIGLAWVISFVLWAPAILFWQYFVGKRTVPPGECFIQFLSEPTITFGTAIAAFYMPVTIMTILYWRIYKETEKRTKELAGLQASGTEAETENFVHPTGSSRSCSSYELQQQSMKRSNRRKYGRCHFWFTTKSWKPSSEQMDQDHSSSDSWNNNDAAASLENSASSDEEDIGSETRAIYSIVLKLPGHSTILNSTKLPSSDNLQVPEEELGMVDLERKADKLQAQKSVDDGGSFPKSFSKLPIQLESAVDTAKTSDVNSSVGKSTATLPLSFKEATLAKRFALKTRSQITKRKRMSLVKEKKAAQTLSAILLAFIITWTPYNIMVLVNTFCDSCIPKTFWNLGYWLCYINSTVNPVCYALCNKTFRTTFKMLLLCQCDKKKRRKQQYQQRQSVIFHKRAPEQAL

On to `Cc1nc(C(=O)N2CCOC3(CCN(Cc4cccc(CCNC[C@H](O)c5ccc(O)c6[nH]c(=O)ccc56)c4)CC3)C2)cs1` [Example 7, (R)-8-Hydroxy-5-(1-hydroxy-2-(3-((4-(2-methylthiazole-4-carbonyl)-1-oxa-4,9-diazaspiro[5.5]undecan-9-yl)methyl)phenethylamino)ethyl)quinolin-2(1H)-one ditrifluoroacetate], for which, in test [1], the EC50 was 6.31 nM and the “β2 Intrinsic activity” value is reported as 0.8. In addition, in test [2], the IC50 was 0.501 nM.

In the case of `Cc1nc(C(=O)N2CCOC3(CCN(CCc4ccc(CNC[C@H](O)c5ccc(O)c6[nH]c(=O)sc56)s4)CC3)C2)cs1` [Example 21, (R)-4-Hydroxy-7-(1-hydroxy-2-((5-(2-(4-(2-methylthiazole-4-carbonyl)-1-oxa-4,9-diazaspiro[5.5]undecan-9-yl)ethyl)thiophen-2-yl)methylamino)ethyl)benzo[d]thiazol-2(3H)-one ditrifluoroacetate], in test [1], the EC50 is 200 nM and the “β2 Intrinsic activity” value is recorded as 0.5. Moreover, in test [2], the IC50 was 1 nM.

For the compound `CC(C)c1cc(C(=O)N2CCOC3(CCN(Cc4cccc(CC(C)(C)NC[C@H](O)c5ccc(O)c6[nH]c(=O)ccc56)c4)CC3)C2)cs1` [Example 275, (R)-8-Hydroxy-5-(1-hydroxy-2-(1-(3-((4-(5-isopropylthiophene-3-carbonyl)-1-oxa-4,9-diazaspiro[5.5]undecan-9-yl)methyl)phenyl)-2-methylpropan-2-ylamino)ethyl)quinolin-2(1H)-one ditrifluoroacetate], in test [1], the EC50 was 50.1 nM and the “β2 Intrinsic activity” value turned out to be 1. Moreover, in test [2], the IC50 was 1.58 nM.

With `Cc1csc(C(=O)N2CCOC3(CCN(Cc4cc(F)cc(CCNC[C@H](O)c5ccc(O)c6[nH]c(=O)sc56)c4)CC3)C2)c1` [Example 60, (R)-7-(2-(3-Fluoro-5-((4-(4-methylthiophene-2-carbonyl)-1-oxa-4,9-diazaspiro[5.5]undecan-9-yl)methyl)phenethylamino)-1-hydroxyethyl)-4-hydroxybenzo[d]thiazol-2(3H)-one ditrifluoroacetate], in test [1], the EC50 is 5.01 nM and the “β2 Intrinsic activity” value turned out to be 1. Moreover, the IC50 in test [2] is 3.98 nM.

Regarding `CC(C)c1ccc(C(=O)N2CCOC3(CCN(Cc4cccc(CCNC[C@H](O)c5ccc(O)c6[nH]c(=O)sc56)c4)CC3)C2)s1` [Example 268, (R)-4-Hydroxy-7-(1-hydroxy-2-(3-((4-(5-isopropylthiophene-2-carbonyl)-1-oxa-4,9-diazaspiro[5.5]undecan-9-yl)methyl)phenethylamino)ethyl)benzo[d]thiazol-2(3H)-one ditrifluoroacetate], in test [1], the EC50 is 10 nM and the “β2 Intrinsic activity” value worked out at 1. In test [2], the IC50 was 1.58 nM.

Consider `O=C(c1ccc2occc2c1)N1CCOC2(CCN(Cc3cccc(CCNC[C@H](O)c4ccc(O)c5[nH]c(=O)sc45)c3)CC2)C1` [Example 266, (R)-7-(2-(3-((4-(Benzofuran-5-carbonyl)-1-oxa-4,9-diazaspiro[5.5]undecan-9-yl)methyl)phenethylamino)-1-hydroxyethyl)-4-hydroxybenzo[d]thiazol-2(3H)-one ditrifluoroacetic acid], for which, in test [1], the EC50 is 7.94 nM and the “β2 Intrinsic activity” value stood at 0.7. For the same compound, the IC50 in test [2] was 0.316 nM.

In the case of `CC(C)c1nc(C(=O)N2CCOC3(CCN(Cc4cccc5c(CNC[C@H](O)c6ccc(O)c7[nH]c(=O)sc67)cccc45)CC3)C2)cs1` [Example 62, (R)-4-Hydroxy-7-(1-hydroxy-2-((5-((4-(2-isopropylthiazole-4-carbonyl)-1-oxa-4,9-diazaspiro[5.5]undecan-9-yl)methyl)naphthalen-1-yl)methylamino)ethyl)benzo[d]thiazol-2(3H)-one ditrifluoroacetate], in test [1], the EC50 is 251 nM and the “β2 Intrinsic activity” value came to 0.9. The IC50 in test [2] was 251 nM.

Take `Cc1nc(C(=O)N2CCOC3(CCN(Cc4cc(F)cc(CCNC[C@H](O)c5ccc(O)c6[nH]c(=O)ccc56)c4)CC3)C2)cs1` [Example 28, (R)-5-(2-(3-Fluoro-5-((4-(2-methylthiazole-4-carbonyl)-1-oxa-4,9-diazaspiro[5.5]undecan-9-yl)methyl)phenethylamino)-1-hydroxyethyl)-8-hydroxyquinolin-2(1H)-one ditrifluoroacetate]: in test [1], the EC50 is 10 nM and the “β2 Intrinsic activity” value is 1. Also, in test [2], the IC50 is 2.51 nM.

Regarding `CCC(CC)c1nc(C(=O)N2CCOC3(CCN(Cc4cccc(CCNC[C@H](O)c5ccc(O)c6[nH]c(=O)sc56)c4F)CC3)C2)cs1` [Example 71, (R)-7-(2-(2-Fluoro-3-((4-(2-(pentan-3-yl)thiazole-4-carbonyl)-1-oxa-4,9-diazaspiro[5.5]undecan-9-yl)methyl)phenethylamino)-1-hydroxyethyl)-4-hydroxybenzo[d]thiazol-2(3H)-one ditrifluoroacetate], in test [1], the EC50 was 20 nM and the “β2 Intrinsic activity” value is given as 0.8. Further, the IC50 in test [2] is 5.01 nM.

Consider `Cc1ccc(C(=O)N2CCOC3(CCN(CCOc4ccc(CNC[C@H](O)c5ccc(O)c6[nH]c(=O)sc56)cc4)CC3)C2)s1` [Example 110, (R)-4-Hydroxy-7-(1-hydroxy-2-(4-(2-(4-(5-methylthiophene-2-carbonyl)-1-oxa-4,9-diazaspiro[5.5]undecan-9-yl)ethoxy)benzylamino)ethyl)benzo[d]thiazol-2(3H)-one formate], for which, in test [1], the EC50 is 63.1 nM and the “β2 Intrinsic activity” value worked out at 0.8. Further, in test [2], the IC50 was 20 nM.

Regarding `CC(C)c1nc(C(=O)N2CCOC3(CCN(Cc4ccc(C(F)(F)F)c(CCNC[C@H](O)c5ccc(O)c6[nH]c(=O)sc56)c4)CC3)C2)cs1` [Example 270, (R)-4-Hydroxy-7-(1-hydroxy-2-(5-((4-(2-isopropylthiazole-4-carbonyl)-1-oxa-4,9-diazaspiro[5.5]undecan-9-yl)methyl)-2-(trifluoromethyl)phenethylamino)ethyl)benzo[d]thiazol-2(3H)-one ditrifluoroacetate], in test [1], the EC50 was 251 nM and the “β2 Intrinsic activity” value amounted to 0.7. Further, the IC50 in test [2] was 79.4 nM.

Take `CC(C)Cc1nc(C(=O)N2CCOC3(CCN(Cc4cccc(CCNC[C@H](O)c5ccc(O)c6[nH]c(=O)sc56)c4)CC3)C2)cs1` [Example 84, (R)-4-Hydroxy-7-(1-hydroxy-2-(3-((4-(2-isobutylthiazole-4-carbonyl)-1-oxa-4,9-diazaspiro[5.5]undecan-9-yl)methyl)phenethylamino)ethyl)benzo[d]thiazol-2(3H)-one ditrifluoroacetate]: in test [1], the EC50 was 5.01 nM and the “β2 Intrinsic activity” value is given as 0.9. The IC50 in test [2] was 0.794 nM.

As for `O=C(c1csc(-c2ccccc2)n1)N1CCOC2(CCN(Cc3cc(F)cc(CCNC[C@H](O)c4ccc(O)c5[nH]c(=O)sc45)c3)CC2)C1` [Example 41, (R)-7-(2-(3-Fluoro-5-((4-(2-phenylthiazole-4-carbonyl)-1-oxa-4,9-diazaspiro[5.5]undecan-9-yl)methyl)phenethylamino)-1-hydroxyethyl)-4-hydroxybenzo[d]thiazol-2(3H)-one ditrifluoroacetate], in test [1], the EC50 was 6.31 nM and the “β2 Intrinsic activity” value is 1.1. Also, in test [2], the IC50 was 126 nM.
